Measured values reported in patent publication US20250255883A1, “Compositions and Methods for Treating Aging Hair” (CHL Industries, LLC, priority 2021, published 2025).

Test system: Normal human keratinocytes (HEKa)
Test: Real-time quantitative PCR gene expression in normal human keratinocytes treated for 24 hours
Format: cell-based
Details: vs. water-treated control

diethyl ester of copper (II) chlorin e6 [DECCE6]
Fold Up- or Down-Regulation 18S (gene 18S (housekeeping), 20 ug/mL): 1.2 Fold
Fold Up- or Down-Regulation AQP3 (gene AQP3, 20 ug/mL): 5.5 Fold
Fold Up- or Down-Regulation AREL1 (gene AREL1, 20 ug/mL): −5.8 Fold
Fold Up- or Down-Regulation ARRDC3 (gene ARRDC3, 20 ug/mL): 1.9 Fold
Fold Up- or Down-Regulation BAMBI (gene BAMBI, 20 ug/mL): 1.3 Fold
Fold Up- or Down-Regulation CCL20 (gene CCL20, 20 ug/mL): 2.6 Fold
Fold Up- or Down-Regulation CDKN1A (gene CDKN1A, 20 ug/mL): −1.4 Fold
Fold Up- or Down-Regulation CSF1 (gene CSF1, 20 ug/mL): 1.1 Fold
Fold Up- or Down-Regulation CSF2 (gene CSF2, 20 ug/mL): −1.1 Fold
Fold Up- or Down-Regulation CXCL1 (gene CXCL1, 20 ug/mL): 2.7 Fold
Fold Up- or Down-Regulation CXCL2 (gene CXCL2, 20 ug/mL): 3.0 Fold
Fold Up- or Down-Regulation CXCL3 (gene CXCL3, 20 ug/mL): −1.1 Fold
Fold Up- or Down-Regulation CXCL8 (gene CXCL8, 20 ug/mL): 1.3 Fold
Fold Up- or Down-Regulation CXCL10 (gene CXCL10, 20 ug/mL): 7.6 Fold
Fold Up- or Down-Regulation CYB561 (gene CYB561, 20 ug/mL): −1.2 Fold
Fold Up- or Down-Regulation CYP1A1 (gene CYP1A1, 20 ug/mL): 2.8 Fold
Fold Up- or Down-Regulation DDX5 (gene DDX5, 20 ug/mL): 2.1 Fold
Fold Up- or Down-Regulation DEFB1 (gene DEFB1, 20 ug/mL): 3.4 Fold
Fold Up- or Down-Regulation EPGN (gene EPGN, 20 ug/mL): 1.2 Fold
Fold Up- or Down-Regulation FGF2 (gene FGF2, 20 ug/mL): −2.1 Fold
Fold Up- or Down-Regulation FOS (gene FOS, 20 ug/mL): 15.9 Fold
Fold Up- or Down-Regulation G2E3 (gene G2E3, 20 ug/mL): 4.1 Fold
Fold Up- or Down-Regulation GDF15 (gene GDF15, 20 ug/mL): 1.7 Fold
Fold Up- or Down-Regulation GPADH (gene GPADH (housekeeping), 20 ug/mL): −1.9 Fold
Fold Up- or Down-Regulation GPX2 (gene GPX2, 20 ug/mL): 5.5 Fold
Fold Up- or Down-Regulation HBEGF (gene HBEGF, 20 ug/mL): 3.1 Fold
Fold Up- or Down-Regulation HECTD1 (gene HECTD1, 20 ug/mL): 1.2 Fold
Fold Up- or Down-Regulation HERC1 (gene HERC1, 20 ug/mL): 3.5 Fold
Fold Up- or Down-Regulation HIF1AN (gene HIF1AN, 20 ug/mL): −1.6 Fold
Fold Up- or Down-Regulation HPRT1 (gene HPRT1 (housekeeping), 20 ug/mL): 1.6 Fold
Fold Up- or Down-Regulation HSP90B1 (gene HSP90B1, 20 ug/mL): 1.2 Fold
Fold Up- or Down-Regulation IFI44L (gene IFI44L, 20 ug/mL): 3.9 Fold
Fold Up- or Down-Regulation JUN (gene JUN, 20 ug/mL): 3.3 Fold
Fold Up- or Down-Regulation JUNB (gene JUNB, 20 ug/mL): 1.6 Fold
Fold Up- or Down-Regulation LTB4R (gene LTB4R, 20 ug/mL): −1.3 Fold
Fold Up- or Down-Regulation MAFF (gene MAFF, 20 ug/mL): −1.1 Fold
Fold Up- or Down-Regulation MAP1LC3B (gene MAP1LC3B, 20 ug/mL): 1.2 Fold
Fold Up- or Down-Regulation MAPK14 (gene MAPK14, 20 ug/mL): −1.7 Fold
Fold Up- or Down-Regulation MGAT1 (gene MGAT1, 20 ug/mL): −1.0 Fold
Fold Up- or Down-Regulation MGAT5 (gene MGAT5, 20 ug/mL): −1.8 Fold
Fold Up- or Down-Regulation MOGS (gene MOGS, 20 ug/mL): −2.8 Fold
Fold Up- or Down-Regulation N4BP1 (gene N4BP1, 20 ug/mL): 1.7 Fold
Fold Up- or Down-Regulation NFKBIA (gene NFKBIA, 20 ug/mL): 4.6 Fold
Fold Up- or Down-Regulation PELI1 (gene PELI1, 20 ug/mL): −1.5 Fold
Fold Up- or Down-Regulation PLAUR (gene PLAUR, 20 ug/mL): 2.1 Fold
Fold Up- or Down-Regulation PPP1R15A (gene PPP1R15A, 20 ug/mL): 3.2 Fold
Fold Up- or Down-Regulation PTGFRN (gene PTGFRN, 20 ug/mL): −4.6 Fold
Fold Up- or Down-Regulation PTGS2 (gene PTGS2, 20 ug/mL): −1.1 Fold
Fold Up- or Down-Regulation PTX3 (gene PTX3, 20 ug/mL): 1.1 Fold
Fold Up- or Down-Regulation REL (gene REL, 20 ug/mL): 1.6 Fold
Fold Up- or Down-Regulation RSAD2 (gene RSAD2, 20 ug/mL): 1.9 Fold
Fold Up- or Down-Regulation SAMD9L (gene SAMD9L, 20 ug/mL): 1.3 Fold
Fold Up- or Down-Regulation SOD2 (gene SOD2, 20 ug/mL): 1.2 Fold
Fold Up- or Down-Regulation SPRR2B (gene SPRR2B, 20 ug/mL): 2.4 Fold
Fold Up- or Down-Regulation TGFB1 (gene TGFB1, 20 ug/mL): −1.9 Fold
Fold Up- or Down-Regulation TNF (gene TNF, 20 ug/mL): 16.4 Fold
Fold Up- or Down-Regulation TNFAIP3 (gene TNFAIP3, 20 ug/mL): 2.4 Fold
Fold Up- or Down-Regulation UBE2S (gene UBE2S, 20 ug/mL): 2.2 Fold
Fold Up- or Down-Regulation UBE3B (gene UBE3B, 20 ug/mL): 1.2 Fold
Fold Up- or Down-Regulation UBE4B (gene UBE4B, 20 ug/mL): 1.2 Fold
Fold Up- or Down-Regulation UBE20 (gene UBE20, 20 ug/mL): 1.8 Fold
Fold Up- or Down-Regulation VCP (gene VCP, 20 ug/mL): −2.0 Fold
Fold Up- or Down-Regulation VEGFA (gene VEGFA, 20 ug/mL): 1.5 Fold
